Series [1] is described as follows: Acute toxicity (LD50) in mice. To be noted: non-linebred white, mouse, in vivo, iv; mice 18-20 g; by mouth or intravenously; observation period 14 days. The series is classed as in vivo. The method, then: (§1) Acute toxicity was determined on non-linebred white mice weighing 18-20 g. Emulsions of certain of the claimed compounds were prepared in a range of concentrations: 1500, 700, 500, 100, 20 and 5 μg/kg. Five animals were used to study each specific concentration of a compound. The preparation was administered once a day by mouth or intravenously. The observation period was 14 days On days 1, 8 and 15 the animals in every group were weighed. For a control we used animals who received the emulsion without the test compounds.
(§2) All animals, both that died in the course of the experiment and those that survived to the end of the experiment, were opened to allow macroscopic examination of internal organs.
(§3) In the course of the experiment no loss of weight was observed or any change in behavior or external appearance, nor was there any loss of life. Based on the results of the macroscopic examination of internal organs of the animals in the test and the control groups, no pathological findings were made (Table 7).

In series [2] the test system is primary culture of human lymphocytes. In words: Interferon-inducing activity in primary culture of human lymphocytes (immunoenzyme IFN determination). Format: cell-based. Details: unit of the concentration uncertain. To be noted: 24 hours of incubation. The method, then: Interferon synthesis induction by the claimed preparations was conducted on a primary culture of human lymphocytes (the cells in the human body are the main producers of interferon). To obtain a culture of the lymphocytes we used fresh blood (12 hours after collection) from healthy […] (not from the second group).
The lymphocyte concentration was determined after staining with methyl blue and the number of cells in the Goryaev chamber was calculated. […] The final concentration of the lymphocytes in the induction mixture was 3·10^6 cells/ml. The following controls were processed in parallel with the test samples:
The control and the experimental samples were incubated for 24 hours at 37° C. Following incubation the samples were centrifuged at 2000 g to settle out the cellular elements and the INF-containing supernatant was taken from the samples and analyzed for INF content. The cell residue was resuspended in the same volume of nutrient medium, stained with a vital dye—trypan blue—and the number of cells in the Goryaev chamber was calculated (as described above) to determine the cytotoxic activity of the preparations.
For the quantitative determination of INF in the control and experimental samples we used the ProCon IF2 Plus immunoenzyme test system sold by TOO Proteinovyi Kontur. To determine the quantity of interferon s in the sample we used a solid-phase immunoenzyme method utilizing horseradish peroxidase as the enzyme indicator. The activity of the bound peroxidase was measured using an automated photometer at a wavelength of 450 nm for the microplanchets with a microprocessor. […] On the basis of the results obtained we plotted a calibration curve that allowed us to obtain data expressed in International Units (IU) from the microprocessor of the automated photometer. The results of the analysis are expressed in IU of activity of INF per ml in the given induction system containing 3·10^6 lymphocytes/ml. Every experimental and control point was studied in 4 parallel runs.
The results obtained were analyzed statistically using the t-test and the confidence interval at p=0.05 was calculated. Analysis of the convergence of the results of the parallel tests were performed.

A further series has as its system C. trachomatis D323. In words: Activity on Chlamydia trachomatis in McCoy and L929 cell cultures. Format: cell-based. To be noted: 48 hours; for number of cells in 100 fields (unchanged cells): cell control 8000, infected cell control 6400. The method, then:
The antimicrobial activity of the claimed compounds was studied on C. trachomatis […]-a standard strain from the collection of the Department of Microbiology of the Pavlov St.-Petersburg State University. This strain was isolated from a patient with […] urethritis. […] In the work reported here we used McCoy and L929 cell cultures obtained from the Institute of Cytology of the Russian Academy of Sciences. The cells were grown in flasks of neutral glass in RPMI-1640 medium with an addition of 10% fetal calf serum. The experiment was placed in glass (toxicity-free) flat-bottomed flasks and covered with glass. The cells were introduced into the medium in a final concentration of 1·10 cells/ml. […] The sample was centrifuged at 2400 g for 60 min at room temperature and incubated at 37° C. for 2 hours. […] A parallel series of samples was run using medium without the cycloheximide in order to avoid its influence on the test substances. The samples were incubated for 48 hours in a CO2 incubator. […] The results were evaluated from the detection of chlamydia cytoplasmatic inclusion by an immunoenzyme method (MicroTrac Chlamydia trachomatis Direct Specimen Test) and from chlamydia antigens using CylaMonoScreen (Russian-British Joint Venture, 66 Regent's Park Road, London NW 1 7SX).

Series [3] deals with herpes simplex type I (VPG-I/Leningrad/248/88). The experiment in a line: Activity on herpes simplex virus: cytopathic action of the virus on Vero cells. The series is classed as cell-based. To be noted: 36 hours; for number of cells in 100 fields (unchanged cells): cell control 12000. As to the method: The antiviral activity was studied relative to the virus herpes simplex type I (VPG-I/Leningrad/248/88) by a standard method. The virus was grown on a reinoculated Vero cell culture obtained from the cell culture bank of the Institute of Cytology of the Russian Academy of Sciences.
To cells grown on medium RPMI-1640 with 10% calf serum and placed in the wells of a 96-well plate, the virus was added to give a final concentration of 10 particles/ml and the claimed compounds dissolved in DMSO were added to give a final concentrations of 100, 10, and 1 mg/l. We used 5 individual wells for every concentration tested. The plate was incubated for 60 min at 38° C. in a CO2 incubator. After incubation the virus was removed and new medium was added that contained the claimed compounds in the test concentrations.
The results were evaluated according to the existence of a cytopathic action of the virus on the cells after 36 hours of incubation at 38° C. in the CO2 incubator.
The following controls were used in the experiment:
3. Control of antiviral activity of an antiviral preparation—acylcovir.
To access the cytopathic effect of the virus, we counted the number of unchanged cells in 100 fields formed by a specialized grid on the eyepiece of the inversion microscope.

The test system is the same in series [4]. The description is as above. Format: cell-based. Particulars: 50 mg/l, 36 hours; for number of cells in 100 fields (unchanged cells): cell control 12000.
The test system of a further series is non-linebred white mice. The experiment in a line: Acute toxicity (LD50) in mice. The series is classed as in vivo. To be noted: mice 18-20 g; by mouth or intravenously; observation period 14 days. The method, then:
as §1, §2, §3

As to `O=[N+]([O-])c1ccc(C2c3c(O)nc(O)nc3Oc3nc(O)nc(O)c32)cc1` [I, 2,4,6,8-Tetrahydroxy-5-(p-nitrophenyl)-5H-pyrano[2,3-d:6,5-d′]dipyrimidine], the LD50 at 14 days in series [1] was found to be 1600 mg/kg. In addition, the “Interferon-inducing activity of the drug; content of INF in induction mixture” value in series [2] (1 (unit uncertain)) was determined as 8.0 ± 0.8 IU/3 · 10^4 lymp/ml; in series [2] (10 (unit uncertain)), 28.0 ± 1.5 IU/3 · 10^4 lymp/ml; in series [2] (100 (unit uncertain)) it was 80.0 ± 1.2 IU/3 · 10^4 lymp/ml. Besides, the entries for the “percent protection of the cells against infection” value in the series with C. trachomatis D323 (30 mg/l) and in the series with C. trachomatis D323 (100 mg/l) were 70% and 80%, respectively. Besides, the “number of cells in 100 fields (unchanged cells)” value amounted to 7520 in the series on C. trachomatis D323 (30 mg/l); 7640 with C. trachomatis D323 (100 mg/l); 7200 in series [3] (10 mg/l); 9600 in series [3] (100 mg/l); 8400 in series [4]. Moreover, the “percent protection of the cells against the virus compared to the cell culture control” value is recorded as 60% in series [3] (10 mg/l), 80% in series [3] (100 mg/l) and 70% in series [4].
In the series with non-linebred white mice, `Oc1nc(S)nc2c1C(c1ccc(Cl)cc1)c1c(O)nc(S)nc1O2` [VIII] registered an LD50 of 1800 mg/kg. Besides, the “Interferon-inducing activity of the drug; content of INF in induction mixture” value in series [2] (1 (unit uncertain)) turned out to be 1.5 ± 1.0 IU/3 · 10^4 lymp/ml; in series [2] (10 (unit uncertain)), 23.2 ± 1.5 IU/3 · 10^4 lymp/ml; in series [2] (100 (unit uncertain)), 70.5 ± 2.5 IU/3 · 10^4 lymp/ml. Also, the “percent protection of the cells against infection” value in the series with C. trachomatis D323 (100 mg/l) is given as 60%. Further, the “number of cells in 100 fields (unchanged cells)” value came to 7360 in the series on C. trachomatis D323 (100 mg/l), 2400 in series [3] (10 mg/l), 10800 in series [3] (100 mg/l) and 6000 in series [4]. For the same molecule, the “percent protection of the cells against the virus compared to the cell culture control” value in series [3] (10 mg/l) is reported as 20%; in series [3] (100 mg/l), 90%; in series [4], 50%.

For the origin of these results see patent US6340755B1, “5H-Pyrano[2,3-d: 6,5-d']dipyrimidine derivatives having an antibacterial, antiviral and immuno-modulating activity” (Natural Drug Sciences LLC, priority 2000, dated 2002).
